# Measured values reported in US8455451B2, “2'-fluoro substituted carba-nucleoside analogs for antiviral treatment” (Gilead Sciences, Inc., priority 2009, dated 2013).
# Like-named read-outs stand apart in the source and are kept apart here.
# Legend:
# [1] = test system: HCV replicon cells; assay: HCV EC50 determination, replicon luciferase assay; type: cell-based; settings: Hepatitis C virus, 72 h
# Procedure: Replicon cells were seeded in 96-well plates at a density of 8×10^3 cells per well in 100 μL of culture medium, excluding Geneticin. Compound was serially diluted in 100% DMSO and then added to the cells at a 1:200 dilution, achieving a final concentration of 0.5% DMSO and a total volume of 200 μL. Plates were incubated at 37° C. for 3 days, after which culture medium was removed and cells were lysed in lysis buffer provided by Promega's luciferase assay system. Following the manufacturer's instruction, 100 μL of luciferase substrate was added to the lysed cells and luciferase activity was measured in a TopCount luminometer.
# [2] = target: T1, S282T mutant HCV Δ21 NS5b polymerase (Hepatitis C virus genotype 1b, UniProt Q9WMX2, S2701T); assay: biochemical; settings: for fold shift (S282T IC50 vs WT IC50): Note of Table II
# T1 construct: 75 nM HCV Δ21 NS5b polymerase
# Procedure: (§1) Assay Protocol: Either wild type or S282T (Migliaccio, et al, J. Biol. Chem. 2003, 49164-49170; Klumpp, et al., J. Biol. Chem. 2006, 3793-3799) mutant polymerase enzyme was used in this assay. NS5b polymerase assay (40 μL) was assembled by adding 28 μL, polymerase mixture (final concentration: 50 mM Tris-HCl at pH 7.5, 10 mM KCL, 5 mM MgCl2, 1 mM DTT, 10 mM EDTA, 4 ng/μL of RNA template, and 75 nM HCV Δ21 NS5b polymerase) to assay plates followed by 4 μL of compound dilution. The polymerase and compound were pre-incubated at 35° C. for 10 minute before the addition of 8 μL of nucleotide substrate mixture (33P-α-labeled competing nucleotide at KM and 0.5 mM of the remaining three nucleotides). The assay plates were covered and incubated at 35° C. for 90 min. Reactions were then filtered through 96-well DEAE-81 filter plates via vacuum. The filter plates were then washed under vacuum with multiple volumes of 0.125 M NaHPO4, water, and ethanol to remove unincorporated label. Plates were then counted on TopCount to assess the level of product synthesis over background controls. The IC50 value is determined using Prism fitting program.
# [3] = target: T2, wild type HCV Δ21 NS5b polymerase (Hepatitis C virus genotype 1b, UniProt Q9WMX2); settings: read-out: WT IC50, value taken from the source in the Note column; cited from earlier work
# T2 construct: 75 nM HCV Δ21 NS5b polymerase
# [4] = target: T1, S282T mutant HCV Δ21 NS5b polymerase; settings: value taken from the source in the Note column; cited from earlier work
# [5] = test system: Huh-luc/neo replicon cells; assay: Metabolism study: intracellular triphosphate analog concentration; type: in vitro ADME; settings: PD-A-8b to TP-8a versus B-7 to TP-3, Huh-luc/neo replicon cells
# Excerpt: Applicants have observed that monophosphate prodrugs of nucleoside analogs with a nitrogen at the X^1 position can have enhanced activity over their counterparts with a carbon at the X^1 position. This difference in activity correlates to the amount of the active triphosphate analogs of the compounds in cells. This can be quantified by a metabolism study which quantifies the intracellular concentration of the triphosphate analogs. The higher intracellular concentration of the triphosphate metabolite correlates to the prodrug with enhanced activity.
# Huh-luc/neo replicon cells containing HCV genotype 1b subgenomic replicons were maintained in Dulbecco's modified eagle medium containing glutamax supplemented with 10% heat inactivated fetal bovine serum, penicillin-streptomycin, and G418 disulphate salt solution. Cells were transferred to twelve well tissue culture plates by trypsonization and grown to confluency (0.88×10^6 cells/well). Cells were treated for 24 hours with 10 μM nucleoside, or 10 μM prodrug. After 24 hours, cells were washed 2 times with 2.0 mL ice cold 0.9% sodium chloride saline. […] Intracellular levels of the nucleoside triphosphates were quantified based on authentic standard curves by liquid chromatography coupled to tandem mass spectrometry.
# [6] = target: T2, wild type HCV Δ21 NS5b polymerase; assay: HCV IC50 determination, NS5b polymerase assay, wild type enzyme; type: biochemical
# Procedure: as §1
# [7] = replicon cells, 3 days incubation, luciferase readout, read-out: EC50
smiles,measurement,setting,value
CCOC(=O)[C@H](CCSC)NP(=O)(OC[C@H]1O[C@@](C#N)(c2ccc3c(N)ncnn23)[C@](C)(F)[C@@H]1O)Oc1ccccc1 (stereo partly shown) [Compound C-2],EC50,[1]; [7],3.9 to 12 µM
CCOC(=O)[C@H](Cc1ccccc1)NP(=O)(OC[C@H]1O[C@@](C#N)(c2ccc3c(N)ncnn23)[C@](C)(F)[C@@H]1O)Oc1ccccc1 (stereo partly shown) [Compound C-4],EC50,[1]; [7],9.8 to 31 µM
"C[C@@]1(O)[C@H](O)[C@@H](COP(=O)(O)OP(=O)(O)OP(=O)(O)O)O[C@@]1(C#N)c1ccc2c(N)ncnn12 [triphosphate of (2R,3R,4R,5R)-2-(4-aminopyrrolo[1,2-f][1,2,4]triazin-7-yl)-3,4-dihydroxy-5-(hydroxymethyl)-3-methyl-tetrahydrofuran-2-carbonitrile]",fold shift (S282T IC50 vs WT IC50),[2],WO/2009/132135 (242 fold shift)
same,IC50,[3],0.525 µM
same,IC50,[4],111 µM
CC(C)OC(=O)OCOP(=O)(OCOC(=O)OC(C)C)OC[C@H]1O[C@@](C#N)(c2ccc3c(N)ncnn23)[C@](C)(F)[C@@H]1O [Compound 10],EC50,[1]; [7],6.5 to 8 µM
CCCCCCCOC(=O)[C@H](C)NP1(=O)OC[C@H]2O[C@@](C#N)(c3ccc4c(N)ncnn34)[C@](C)(F)[C@@H]2O1 (stereo partly shown) [Compound 25],EC50,[1]; [7],9.7 to 10 µM
CCOC(=O)[C@H](C)NP(=O)(OC[C@H]1O[C@@H](c2ccc3c(N)ncnn23)[C@](C)(F)[C@@H]1O)Oc1cccc2ccccc12 (stereo partly shown) [Compound B-8],EC50,[1]; [7],35 to 60 µM
CC(C)OC(=O)[C@H](C)NP(=O)(OC[C@H]1O[C@@](C#N)(c2ccc3c(N)ncnn23)[C@](C)(F)[C@@H]1O)Oc1ccccc1 (stereo partly shown) [Compound B-3],EC50,[1]; [7],16 to 28 µM
CCOC(=O)[C@H](C)NP(=O)(OC[C@H]1O[C@@H](c2cnc3c(N)ncnn23)[C@](C)(F)[C@@H]1O)Oc1ccccc1 (stereo partly shown) [PD-A-8b],EC50,[1]; [7],0.68 µM
same,"efficiency of activation of prodrug to its triphosphate analog, compared with B-7",[5],more than two orders of magnitude more efficient
C[C@@]1(F)[C@H](O)[C@@H](COP(=O)(O)NCCc2c[nH]c3ccccc23)O[C@@]1(C#N)c1ccc2c(N)ncnn12 [Compound 22],EC50,[1]; [7],31 to 45 µM
CCOC(=O)[C@H](C)NP(=O)(OC[C@H]1O[C@@](C#N)(c2ccc3c(N)ncnn23)[C@](C)(F)[C@@H]1O)Oc1ccccc1 (stereo partly shown) [Compound B-1],EC50,[1]; [7],1.4 to 4.3 µM
CCOC(=O)[C@@H]1CCCN1P(=O)(OC[C@H]1O[C@@](C#N)(c2ccc3c(N)ncnn23)[C@](C)(F)[C@@H]1O)Oc1ccccc1 (stereo partly shown) [Compound C-5],EC50,[1],24 to 28 µM
CCOC(=O)[C@@H](NP(=O)(OC[C@H]1O[C@@](C#N)(c2ccc3c(N)ncnn23)[C@](C)(F)[C@@H]1O)Oc1ccccc1)C(C)C (stereo partly shown) [Compound C-1],EC50,[1]; [7],67 to 70 µM
CC(C)OP1(=O)OC[C@H]2O[C@@](C#N)(c3ccc4c(N)ncnn34)[C@](C)(F)[C@@H]2O1 (stereo partly shown) [Compound 24],EC50,[1]; [7],40.3 to 70.5 µM
C[C@@]1(F)[C@H](O)[C@@H](COP(=O)(O)OP(=O)(O)OP(=O)(O)O)O[C@H]1c1ccc2c(N)ncnn12,IC50,[6],0.034 µM
CCOC(=O)[C@H](CCS(C)(=O)=O)NP(=O)(OC[C@H]1O[C@@](C#N)(c2ccc3c(N)ncnn23)[C@](C)(F)[C@@H]1O)Oc1ccccc1 (stereo partly shown) [Compound C-6],EC50,[1]; [7],11 µM
CCOC(=O)[C@H](Cc1c[nH]c2ccccc12)NP(=O)(OC[C@H]1O[C@@](C#N)(c2ccc3c(N)ncnn23)[C@](C)(F)[C@@H]1O)Oc1ccccc1 (stereo partly shown) [Compound C-3],EC50,[1]; [7],43 to 84 µM
CCOC(=O)CNP(=O)(OC[C@H]1O[C@@](C#N)(c2ccc3c(N)ncnn23)[C@](C)(F)[C@@H]1O)Oc1ccccc1 (stereo partly shown) [Compound B-5],EC50,[1]; [7],1.93 to 25.5 µM
C[C@@]1(F)[C@@H]2OP(=O)(O)OC[C@H]2O[C@@]1(C#N)c1ccc2c(N)ncnn12 [Compound 23],EC50,[1]; [7],39.4 to 40.3 µM
CCC(CC)COC(=O)C(C)(C)NP(=O)(OC[C@H]1O[C@@](C#N)(c2ccc3c(N)ncnn23)[C@](C)(F)[C@@H]1O)Oc1ccccc1 (stereo partly shown) [Compound B-4],EC50,[1]; [7],8.4 to 19 µM
C[C@@]1(F)[C@H](O)[C@@H](COP(=O)(O)OP(=O)(O)OP(=O)(O)O)O[C@H]1c1cnc2c(=O)[nH]c(N)nn12 [TP-1],IC50,[6],0.15 µM
same,IC50,[2],0.15 µM
same,fold shift (S282T IC50 vs WT IC50),[2],(1 fold shift)
CC(C)(C)C(=O)SCCOP(=O)(OCCSC(=O)C(C)(C)C)OC[C@H]1O[C@@H](c2cnc3c(N)nc(N)nn23)[C@](C)(F)[C@@H]1O [Compound A-1],EC50,[1]; [7],23 µM
CCOC(=O)[C@H](C)NP(=O)(OC[C@H]1O[C@@H](c2ccc3c(N)ncnn23)[C@](C)(F)[C@@H]1O)Oc1ccccc1 (stereo partly shown) [Compound B-7],EC50,[1]; [7],63 to 73 µM
C[C@@]1(F)[C@H](O)[C@@H](COP(=O)(O)OP(=O)(O)OP(=O)(O)O)O[C@@]1(C#N)c1ccc2c(N)ncnn12 [TP-2],IC50,[6],0.24 µM
same,IC50,[2],1.6 µM
same,fold shift (S282T IC50 vs WT IC50),[2],(7 fold shift)
CCOC(=O)[C@H](C)NP(=O)(OC[C@H]1O[C@@](C#N)(c2ccc3c(N)ncnn23)[C@](C)(F)[C@@H]1O)Oc1cccc2ccccc12 (stereo partly shown) [Compound B-6],EC50,[1]; [7],3.75 to 11.1 µM
C[C@@]1(F)[C@H](O)[C@@H](COP(=O)(O)OP(=O)(O)OP(=O)(O)O)O[C@H]1c1cnc2c(N)ncnn12,IC50,[6],0.3 µM
same,IC50,[2],1.6 µM
same,fold shift (S282T IC50 vs WT IC50),[2],(5.3 fold shift)
